Legend:
Assay in all cases: In vitro anticancer activity test (MTT cell proliferation assay)
Assay type in all cases: cell-based
[1] = test system: human prostate cancer cell PC-3
Description: (§1) The anticancer activity of the compounds was tested using an in vitro cancer cell tests. The specific test method is as follows: • 1. Cell recovery and culture method: the cryovial was taken out from the liquid nitrogen container firstly, soaked directly in 37°C warm water, and shaked from time to time to let it thaw as soon as possible. Then, the cryovial was transferred to a clean bench, and the lid was open. The cell suspension was taken into a centrifuge tube using a rubber-tipped dropper and more than 10 times the culture medium was added, mixed well, and centrifuged at 50g for 5 minutes. Then, the supernatant was discarded, complete culture medium containing 10% fetal bovine serum was added to resuspend the cells, the cells was counted, the cell density was adjusted, and then inoculated into a culture bottle. The culture bottle was placed in a cell culture incubator at 5% CO2 and 37°C. The complete culture medium was replaced once the next day and the culture was continued. • 2. Cell passaging method: adherent cells in the logarithmic growth phase were placed in a clean bench, the original culture medium was discarded, and washed three times with 1×PBS. An appropriate amount of 0.25% trypsin digestion solution was added to moisten the cells, and then the trypsin solution was aspirated. The cells were placed in a cell culture incubator at 5% CO2 and 37°C for digestion for a suitable time, and observed under a microscope. When 90% of the cells become round, the cells were moved immediately to the clean bench and complete culture medium was added to terminate digestion. Then, the cells were dislodged by pipetting up and down with a rubber-tipped dropper to single cells. The cells were counted, and the cell density was adjusted. The cells were inoculated into a suitable culture bottle or dish, added enough complete culture medium, and placed in a cell culture incubator at 5% CO2 and 37°C for static culture. For suspension cells in the logarithmic phase, the original culture medium was directly centrifuged at 50g for 5 minutes, the supernatant was discarded, and the cells were washed once with PBS and centrifuged. After discarding the supernatant, the complete culture medium was added and the cells were dispersed using a rubber-tipped dropper. The cells are counted, and the cell density was adjusted. The cells were inoculated into appropriate culture bottles or culture dishes, and sufficient complete culture medium was added, and the cells were cultured in a cell culture incubator at 5% CO2 and 37°C. • 3. Cell proliferation assay: cells in good state in logarithmic phase were taken and appropriate amount of the cells was inoculated into 96-well plates according to the cell passage treatment method, with each well containing 180 µL complete medium. After the cells growth was recovered and the number of cells in each well is 5000±500, a drug was added for treatment. After drug treatment during the experimental time, MTT solution with a final concentration of 0.5 mg/mL was added to each well, and placed in a cell culture incubator at 5% CO2 and 37°C to allow a fully reaction of MTT with cells. After 4 hours, the solution in the 96-well plate was discarded, 100 µL of DMSO was added, and shaked to dissolve the formazan precipitated at the bottom of the plate, and the absorbance value of samples was detected at a wavelength of 570 nm using a microplate reader. Calculation method of cell viability rate: Viability rate = A sample group÷A control group × 100% [formula] • 4. Cell photography step: cells in good state in logarithmic phase were taken and an appropriate amount of cells was inoculated into 96-well plates according to the cell passage treatment method, with each well containing 180 µL complete medium. After the cells growth was recovered and the number of cells in each well is 5000 ± 500, a drug was added for treatment. […]

human glioma cell SNB-19 = test system: human glioma cell SNB-19
Description: as §1

[2] = test system: human Burkitt's lymphoma cell Raji
Description: as §1

[3] = test system: pancreatic cancer cell PNAC-1
Description: as §1

[4] = test system: human non-small cell lung cancer cell A549
Description: as §1

[5] = test system: human malignant melanoma cell A375; conditions: A-375
Description: as §1

[6] = test system: human gastric cancer cell MGC-803
Description: as §1

[7] = test system: human liver cancer cell HepG2
Description: as §1

[8] = test system: human breast cancer cell MCF-7; conditions: MCF7
Description: The anticancer activity of the compounds was tested using an in vitro cancer cell tests. The specific test method is as follows: • 1. Cell recovery and culture method: the cryovial was taken out from the liquid nitrogen container firstly, soaked directly in 37°C warm water, and shaked from time to time to let it thaw as soon as possible. Then, the cryovial was transferred to a clean bench, and the lid was open. […] Then, the supernatant was discarded, complete culture medium containing 10% fetal bovine serum was added to resuspend the cells, the cells was counted, the cell density was adjusted, and then inoculated into a culture bottle. The culture bottle was placed in a cell culture incubator at 5% CO2 and 37°C. The complete culture medium was replaced once the next day and the culture was continued. • 2. Cell passaging method: adherent cells in the logarithmic growth phase were placed in a clean bench, the original culture medium was discarded, and washed three times with 1×PBS. An appropriate amount of 0.25% trypsin digestion solution was added to moisten the cells, and then the trypsin solution was aspirated. […] When 90% of the cells become round, the cells were moved immediately to the clean bench and complete culture medium was added to terminate digestion. Then, the cells were dislodged by pipetting up and down with a rubber-tipped dropper to single cells. The cells were counted, and the cell density was adjusted. The cells were inoculated into a suitable culture bottle or dish, added enough complete culture medium, and placed in a cell culture incubator at 5% CO2 and 37°C for static culture. For suspension cells in the logarithmic phase, the original culture medium was directly centrifuged at 50g for 5 minutes, the supernatant was discarded, and the cells were washed once with PBS and centrifuged. After discarding the supernatant, the complete culture medium was added and the cells were dispersed using a rubber-tipped dropper. The cells are counted, and the cell density was adjusted. […]

| SMILES | IC50 [1] [µM] | IC50 (human glioma cell SNB-19) [µM] | IC50 [2] [µM] | IC50 [3] [µM] | IC50 [4] [µM] | IC50 [5] [µM] | IC50 [6] [µM] | IC50 [7] [µM] | IC50 [8] [µM] |
| --- | --- | --- | --- | --- | --- | --- | --- | --- | --- |
| CCN(CC)CCNC(=O)c1c(C)[nH]c(/C=C2\C(=O)Nc3ccc(F)cc32)c1C [Sunitinib] | 14.7 ± 6.6 | 6.5 ± 1.2 | 20.3 ± 2 | 22.4 ± 5.2 | 12.9 ± 10.2 | 19.2 ± 4.6 | 17.5 ± 2.4 | 9.6 ± 2.1 | 3.2 ± 0.3 |
| O=C(O)c1cn(C2CC2)c2c(Cl)c(-c3ccc(S(=O)(=O)NCCCC(F)(F)F)nc3)c(F)cc2c1=O [Example 29, 8-chloro-1-cyclopropyl-6-fluoro-4-oxo-7-(6-(N-(4,4,4-trifluorobutyl)sulfamoyl)pyridin-3-yl)-1,4-dihydroquinolin-3-carboxylic acid] | 1 to 10 | 1 to 10 | 1 to 10 | 1 to 10 | 1 to 10 | 1 to 10 | 1 to 10 | 1 to 10 | 1 to 10 |
| O=C(O)c1cn(C2CC2)c2cc(N3CCNCC3)c(F)cc2c1=O [Ciprofloxacin] | > 100 | > 100 | > 100 | > 100 | > 100 | > 100 | > 100 | > 100 | > 100 |

From EP4644391A1, “NOVEL PHENYLQUINOLONE COMPOUND HAVING ANTIBACTERIAL AND ANTICANCER FUNCTIONS, AND PREPARATION THEREOF” (Alphamol Science Ltd (Shanghai), priority 2022, dated 2024)
